Measured values published in US7132435B2, “Compounds” (Pfizer Inc., priority 2003, dated 2006).

System: human peripheral blood mononuclear cells
Assay: TNFα release from LPS-stimulated human peripheral blood mononuclear cells (TNFα screen)
Format: cell-based
Conditions: PBMC, 18 hours incubation, TNFα in supernatant by ELISA
Protocol: Venous blood is collected from healthy volunteers and the mononuclear cells purified by centrifugation through Histopaque (Ficoll) cushions. TNFα production from these cells is stimulated by addition of lipopolysaccharide. After 18 hours incubation in the presence of LPS, the cell supernatant is removed and the concentration of TNFα in the supernatant determined by ELISA. Addition of PDE4 inhibitors reduces the amount of TNFα produced. An IC50 is determined which is equal to the concentration of compound that gives 50% inhibition of TNFα production as compared to the LPS stimulated control wells.

IC50 [nM] | Structure (SMILES)
0.6 | O=C(N[C@H]1CC[C@@H](NC(=O)c2cccn3ccnc23)CC1)c1cc(F)cnc1Oc1ccc2c(c1)SCC2 [Example 1, Syn-imidazo[1,2-a]pyridine-8-carboxylic acid (4-{[2-(2,3-dihydro-benzo[b]thiophen-6-yloxy)-5-fluoro-pyridine-3-carbonyl]-amino}-cyclohexyl)-amide]
0.8 | Cc1ccc(C(=O)N[C@H]2CC[C@@H](NC(=O)c3cc(F)cnc3Oc3ccc4c(c3)SCC4)CC2)c(O)c1 [Example 3, Syn-2-(2,3-dihydro-benzo[b]thiophen-6-yloxy)-5-fluoro-N-[4-(2-hydroxy-4-methyl-benzoylamino)-cyclohexyl]-nicotinamide]
